Assay results published in patent US11432549B2, “Carbamoyl triazolinone based herbicide combinations and method of use” (Arysta LifeScience Corporation, priority 2009, dated 2022).
Where two headings read alike, the source gives them in different places.

What was measured:
Poa annua = experiment: Ex 5/7 greenhouse spray, bleaching/injury ratings; format: in vivo; conditions: Poa
Procedure: (§1) Containers were watered as needed based on species and water usage. The greenhouse was heated to keep temperatures above 50° F. (10° C.) and ventilated as needed to keep temperatures below 100° F. (38° C.). Typical daytime temperatures in the greenhouse were 80-90° F. (27-32° C.) and nighttime temperatures were between 50-60° F. (10-16° C.). The soil employed was Promix BX potting soil. Overall moisture conditions were normal and the closest weather station was on-site. Conditions and equipment employed in this Example are tabulated below in Tables 5-1 and 5-2.
(§2) All containers were moved outdoors from the greenhouse and arranged in blocks by treatment for the herbicide applications. A single spray application was applied to each block containing four repetitions of each species for each treatment. Plants were then immediately returned to the greenhouse and irrigated with approximately ¼″ water 1-3 hrs after treatment with a hose end sprayer. Only the Poa plants were trimmed with scissors two days prior to treatment at a height of approximately 3 inches.
(§3) Transplanted tillering Kentucky Bluegrass was 5 to 6 months old, transplanted Poa annua was 5 to 6 months old. Tall fescue was seeded into the crabgrass pots. St. Augustine plants (Floratam and Saphire) were shipped from Port St. Lucie, Fla. Only two replicates of Saphire St. Augustine grass were used due to plant availability.
(§4) Referring to FIGS. 2A-B, 3A-C, 4A-C, and 5A-D, all ratings of injury or bleaching are based on a scale from 1 to 9. […] Any bleaching measurement 4 and above was considered unacceptable for desirable turf species. In injury measurements, 1 indicates no injury while 9 indicates a dead plant. Any injury measurement 4 and above was considered unacceptable for desirable turf species). Density correlates with percent cover where 1 indicates no grass while 9 indicates a full pot.
(§5) Replications employed include 4, Untreated treatments: 1, Design: Randomized Complete Block, Treatment units: US standard, Treated plot size Width: 4 feet, Treated plot size Length: 4 feet, Application volume: 50 gal/ac, Mix size: 0.5562 liters, Mix overage: 100%, Format definitions: G-All7.DEF, G-All7.FRM.
(§6) In evaluating synergism, the data from Example 5 above were converted to % of control. This was done based on the data provided on a 1-9 scale detailed in Example 5. Expected values were computed from the % of control data by the formula for expected control=[…], where A is the % of control value for herbicide A alone and B is the % of control value for herbicide B alone.

Crabgrass sp. = experiment: Ex 5/7 greenhouse spray, bleaching/injury/density ratings; format: in vivo; conditions: Crabgrass
Procedure: as §1, §2, §3, §4, §5, §6

Green Foxtail = experiment: Ex 5/7 greenhouse spray, bleaching/injury ratings; format: in vivo; conditions: Green Foxtail
Procedure: as §1, §2, §4, §5, §6

St. Augustine-Sapphire = conditions: in vivo
Procedure: as §1, §2, §3, §4, §5, §6

St. Augustine-Floratum = conditions: St. Augustine Floratam
Procedure: as §1, §2, §3, §4, §5, §6

Digitaria ciliaris = experiment: Ex 1 pot test, visual % damage; format: in vivo
[1] = Days After First/Last Applic. 41 41, Trt-Eval Interval 31 DA-A

CC(C)c1nn(C(=O)NC(C)(C)C)c(=O)n1N [2 Amicarbazone]
Bleaching (Poa annua; 6 DA-A): 1.0 a
Bleaching (Poa annua; 7 DA-A): 1.0 a
Injury (Poa annua; 10 DA-A): 1.0 e
Bleaching (Poa annua; 14 DA-A): 1.0 b
Injury (Poa annua; 14 DA-A): 1.8
Bleaching (Poa annua; 16 DA-A): 1.0 b
Injury (Poa annua; 16 DA-A): 2.5
Bleaching (Poa annua; 20 DA-A): 1.0 a
Injury (Poa annua; 20 DA-A): 2.5
Injury (Poa annua; 24 DA-A): 2.5 cd
Injury (Poa annua; 31 DA-A): 3.3 c
Injury (Poa annua; [1]): 3.8 c
Bleaching (Crabgrass sp.; 6 DA-A): 1.3 f
Injury (Crabgrass sp.; 6 DA-A): 1.5
Bleaching (Crabgrass sp.; 7 DA-A): 1.0 c
Injury (Crabgrass sp.; 7 DA-A): 1.0 e
Bleaching (Crabgrass sp.; 10 DA-A): 1.0 c
Bleaching (Crabgrass sp.; 14 DA-A): 1.0 c
Injury (Crabgrass sp.; 14 DA-A): 1
Bleaching (Crabgrass sp.; 16 DA-A): 1.3 c
Injury (Crabgrass sp.; 16 DA-A): 1.3
Bleaching (Crabgrass sp.; 20 DA-A): 1.3
Injury (Crabgrass sp.; 20 DA-A): 1.3 c
% Crab Cvr (Crabgrass sp.; 24 DA-A): 7.8 a %
Injury (Crabgrass sp.; 24 DA-A): 1.5 c
% Crab Cvr (Crabgrass sp.; 31 DA-A): 8.3 a %
Bleaching (Crabgrass sp.; 31 DA-A): 1.0 b
% Crab Cvr (Crabgrass sp.; 41 DA-A): 9.0 a %
Bleaching (Crabgrass sp.; 41 DA-A): 1.0 a
Injury (Green Foxtail; 6 DA-A): 1.5 f
Injury (Green Foxtail; 7 DA-A): 1.5 c
Bleaching (Green Foxtail; 10 DA-A): 1.0 c
Bleaching (Green Foxtail; 14 DA-A): 1
Injury (Green Foxtail; 14 DA-A): 1.3
Bleaching (Green Foxtail; 16 DA-A): 1
Injury (Green Foxtail; 16 DA-A): 1.8
Bleaching (Green Foxtail; 20 DA-A): 1.3 c
Injury (Green Foxtail; 20 DA-A): 1.8
Injury (Green Foxtail; 24 DA-A): 2
Bleaching (Green Foxtail; 31 DA-A): 3.0 a
Injury (Green Foxtail; 31 DA-A): 2.8
TurfQuality (St. Augustine-Sapphire): 7.0 a
Bleaching (St. Augustine-Floratum; 6 DA-A): 1.0 a
Bleaching (St. Augustine-Floratum; 7 DA-A): 1.0 c
Bleaching (St. Augustine-Floratum; 10 DA-A): 1.0 c
Bleaching (St. Augustine-Floratum; 14 DA-A): 1.0 c
Bleaching (St. Augustine-Floratum; 16 DA-A): 1.0 e
Bleaching (St. Augustine-Floratum; 20 DA-A): 1.0 b
Bleaching (St. Augustine-Floratum; 31 DA-A): 1.0 c
Bleaching (St. Augustine-Floratum; [1]): 1.0 a
TurfQuality (St. Augustine-Floratum; [1]): 6.8 bc

CC(C)c1nn(C(=O)NC(C)(C)C)c(=O)n1N [3 Amicarbazone]
Bleaching (Poa annua; 6 DA-A): 1.0 a
Bleaching (Poa annua; 7 DA-A): 1.0 a
Injury (Poa annua; 10 DA-A): 3.5 bc
Bleaching (Poa annua; 14 DA-A): 1.8 b
Injury (Poa annua; 14 DA-A): 4.8 b
Bleaching (Poa annua; 16 DA-A): 2.0 ab
Injury (Poa annua; 16 DA-A): 5.0 bc
Bleaching (Poa annua; 20 DA-A): 2.0 a
Injury (Poa annua; 20 DA-A): 5.5 c
Injury (Poa annua; 24 DA-A): 5.3 b
Injury (Poa annua; 31 DA-A): 7.0 ab
Injury (Poa annua; [1]): 7.5 ab
Bleaching (Crabgrass sp.; 6 DA-A): 1.0 f
Injury (Crabgrass sp.; 6 DA-A): 1
Bleaching (Crabgrass sp.; 7 DA-A): 1.0 c
Injury (Crabgrass sp.; 7 DA-A): 1.0 e
Bleaching (Crabgrass sp.; 10 DA-A): 1.0 c
Bleaching (Crabgrass sp.; 14 DA-A): 1.0 c
Injury (Crabgrass sp.; 14 DA-A): 1
Bleaching (Crabgrass sp.; 16 DA-A): 1.0 c
Injury (Crabgrass sp.; 16 DA-A): 1.5
Bleaching (Crabgrass sp.; 20 DA-A): 1
Injury (Crabgrass sp.; 20 DA-A): 1.5 c
% Crab Cvr (Crabgrass sp.; 24 DA-A): 6.3 b %
Injury (Crabgrass sp.; 24 DA-A): 1.5 c
% Crab Cvr (Crabgrass sp.; 31 DA-A): 6.3 b %
Bleaching (Crabgrass sp.; 31 DA-A): 1.0 b
% Crab Cvr (Crabgrass sp.; 41 DA-A): 6.8 b %
Bleaching (Crabgrass sp.; 41 DA-A): 1.0 a
Injury (Green Foxtail; 6 DA-A): 3.8 de
Injury (Green Foxtail; 7 DA-A): 3.5 b
Bleaching (Green Foxtail; 10 DA-A): 1.0 c
Bleaching (Green Foxtail; 14 DA-A): 1
Injury (Green Foxtail; 14 DA-A): 2.5 f
Bleaching (Green Foxtail; 16 DA-A): 1
Injury (Green Foxtail; 16 DA-A): 2.8 cd
Bleaching (Green Foxtail; 20 DA-A): 1.3 c
Injury (Green Foxtail; 20 DA-A): 3.5 cd
Injury (Green Foxtail; 24 DA-A): 3.8 c
Bleaching (Green Foxtail; 31 DA-A): 3.3 a
Injury (Green Foxtail; 31 DA-A): 5.3 bc
TurfQuality (St. Augustine-Sapphire): 7.5 a
Bleaching (St. Augustine-Floratum; 6 DA-A): 1.0 a
Bleaching (St. Augustine-Floratum; 7 DA-A): 1.0 c
Bleaching (St. Augustine-Floratum; 10 DA-A): 1.0 c
Bleaching (St. Augustine-Floratum; 14 DA-A): 1.0 c
Bleaching (St. Augustine-Floratum; 16 DA-A): 1.3 e
Bleaching (St. Augustine-Floratum; 20 DA-A): 1.3 b
Bleaching (St. Augustine-Floratum; 31 DA-A): 1.0 c
Bleaching (St. Augustine-Floratum; [1]): 1.0 a
TurfQuality (St. Augustine-Floratum; [1]): 7.3 ab

CCc1cccc(C)c1N(COC(C)C)C(=O)CCl [Propisochlor, 2-chloro-N-(2-ethyl-6-methylphenyl)-N-[(1-methylethoxy)methyl]acetamide]
weeding effect index (Digitaria ciliaris; 5 DAT, all tested dose rate, one-leaf stage): less than 50%
percentage control (Digitaria ciliaris; single application 50 g/ha, 5 DAT): 28%
percentage control (Digitaria ciliaris; single application 50 g/ha, 8 DAT): 70%
percentage control (Digitaria ciliaris; single application 50 g/ha, 14 DAT): 76%
percentage control (Digitaria ciliaris; single application 50 g/ha, 21 DAT): 88%
percentage control (Digitaria ciliaris; single application 50 g/ha, 28 DAT): 82%
percentage control (Digitaria ciliaris; single application 100 g/ha, 5 DAT): 42%
percentage control (Digitaria ciliaris; single application 100 g/ha, 8 DAT): 78%
percentage control (Digitaria ciliaris; single application 100 g/ha, 14 DAT): 86%
percentage control (Digitaria ciliaris; single application 100 g/ha, 21 DAT): 94%
percentage control (Digitaria ciliaris; single application 100 g/ha, 28 DAT): 92%
percentage control (Digitaria ciliaris; single application 200 g/ha, 5 DAT): 44%
percentage control (Digitaria ciliaris; single application 200 g/ha, 8 DAT): 80%
percentage control (Digitaria ciliaris; single application 200 g/ha, 14 DAT): 90%
percentage control (Digitaria ciliaris; single application 200 g/ha, 21 DAT): 98%
percentage control (Digitaria ciliaris; single application 200 g/ha, 28 DAT): 98%
